Source: ChEMBL document CHEMBL1201862, “PubChem BioAssay data set” (2004)
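48-hour exposure; five concentrations; linearly interpolated endpoints. Abbreviation: GI50, concentration required for 50% inhibition of growth.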 Activity calls are given as the source filed them. No stated cut-off is given here; in the data, active = GI50 up to about 1.1 µM and inactive = higher.

Legend:
Assay in all cases: NCI-60 cell line screen, 48 h
786-0 = tested on: 786-0
BT-549 = tested on: BT-549
CAKI-1 = tested on: CAKI-1
COLO 205 = tested on: COLO 205
HOP-92 = tested on: HOP-92
K562 = tested on: K562
MCF7 = tested on: MCF7
MDA-MB-435 = tested on: MDA-MB-435
MOLT-4 = tested on: MOLT-4
Malme-3M = tested on: Malme-3M
NCI-H460 = tested on: NCI-H460
OVCAR-3 = tested on: OVCAR-3
PC-3 = tested on: PC-3
SF-268 = tested on: SF-268
SF-539 = tested on: SF-539
SK-OV-3 = tested on: SK-OV-3
T47D = tested on: T47D
M14 = tested on: M14
SNB-19 = tested on: SNB-19

Row | SMILES | GI50 (786-0) | GI50 (BT-549) | GI50 (CAKI-1) | GI50 (COLO 205) | GI50 (HOP-92) | GI50 (K562) | GI50 (MCF7) | GI50 (MDA-MB-435) | GI50 (MOLT-4) | GI50 (Malme-3M) | GI50 (NCI-H460) | GI50 (OVCAR-3) | GI50 (PC-3) | GI50 (SF-268) | GI50 (SF-539) | GI50 (SK-OV-3) | GI50 (T47D) | GI50 (M14) | GI50 (SNB-19)
1 | COC(=O)C1=C(C)NC(CF)=C(C(=O)OC)C1c1cccc2c(=O)c3ccccc3oc12 (centres undefined) | 7.38 µM (inactive) | 15.8 µM (inactive) | 11.9 µM (inactive) | 4.39 µM (inactive) | 3.88 µM (inactive) | 4.06 µM (inactive) | 4.94 µM (inactive) | 3.15 µM (inactive) | 5.89 µM (inactive) | 11.2 µM (inactive) | 4.48 µM (inactive) | 4.85 µM (inactive) | 2.69 µM (inactive) | 18.3 µM (inactive) | 24.3 µM (inactive) | 26.5 µM (inactive) | 24.3 µM (inactive) | – | –
2 | C=CCNC1=C2C[C@@H](C)C[C@@H](OC)[C@H](OC(=O)CN(C)C)[C@H](C)/C=C(\C)[C@@H](OC(N)=O)[C@H](OC)/C=C\C=C(/C)C(=O)NC(=CC1=O)C2=O | 0.671 µM (active) | 4.72 µM (inactive) | 1.29 µM (inactive) | < 0.0126 µM (active) | 6.12 µM (inactive) | 0.151 µM (active) | 0.0245 µM (active) | 0.042 µM (active) | 1.43 µM (inactive) | 0.0409 µM (active) | 0.0479 µM (active) | 0.286 µM (active) | 0.0495 µM (active) | 2.54 µM (inactive) | 0.071 µM (active) | 0.0279 µM (active) | 4.82 µM (inactive) | 0.0485 µM (active) | 0.585 µM (active)
3 | CCCCOP(=O)(OCCCC)/C(C#N)=C/c1ccc(C)o1 | 37.1 µM (inactive) | 19.1 µM (inactive) | 60.5 µM (inactive) | 31.9 µM (inactive) | 29.6 µM (inactive) | 31.2 µM (inactive) | 22.6 µM (inactive) | 32.6 µM (inactive) | 63.4 µM (inactive) | 29.6 µM (inactive) | 61.5 µM (inactive) | 14.5 µM (inactive) | 23.9 µM (inactive) | 63.4 µM (inactive) | 61.1 µM (inactive) | 81.5 µM (inactive) | 51.5 µM (inactive) | 28.2 µM (inactive) | > 100 µM (inactive)
4 | Cc1[nH]nc(C(=O)N/N=C/c2cccs2)c1/N=N\N(C)C | 13.6 µM (inactive) | 11.9 µM (inactive) | 5.78 µM (inactive) | 11.9 µM (inactive) | 16.3 µM (inactive) | 3.9 µM (inactive) | 3.94 µM (inactive) | 23.9 µM (inactive) | 3.75 µM (inactive) | 21.4 µM (inactive) | 3.43 µM (inactive) | 22.4 µM (inactive) | 20.1 µM (inactive) | 9.4 µM (inactive) | 13.3 µM (inactive) | 19.8 µM (inactive) | 9.12 µM (inactive) | 24.7 µM (inactive) | 8.38 µM (inactive)
5 | O=[N+]([O-])c1cc2ccc(N(CCO)CCO)nc2nc1N(CCO)CCO | > 100 µM (inactive) | > 100 µM (inactive) | > 100 µM (inactive) | > 100 µM (inactive) | > 100 µM (inactive) | > 100 µM (inactive) | > 100 µM (inactive) | > 100 µM (inactive) | > 100 µM (inactive) | > 100 µM (inactive) | > 100 µM (inactive) | > 100 µM (inactive) | > 100 µM (inactive) | > 100 µM (inactive) | > 100 µM (inactive) | > 100 µM (inactive) | > 100 µM (inactive) | > 100 µM (inactive) | > 100 µM (inactive)
6 | CN(CC(=O)O)Cc1c(O)c(Cl)cc(Cl)c1Cl | 15.8 µM (inactive) | 75.5 µM (inactive) | 61.8 µM (inactive) | 34.6 µM (inactive) | 23.4 µM (inactive) | – | 17.9 µM (inactive) | 74.8 µM (inactive) | – | 27.4 µM (inactive) | 5.13 µM (inactive) | 4.07 µM (inactive) | 41.4 µM (inactive) | 21.4 µM (inactive) | 22.4 µM (inactive) | > 100 µM (inactive) | 54.1 µM (inactive) | 22.2 µM (inactive) | 48.4 µM (inactive)
7 | COc1ccc(C(=O)N(C(=S)OCCOc2ccccc2)c2ccccc2)cc1 | 47.9 µM (inactive) | 49.9 µM (inactive) | 47 µM (inactive) | 30.5 µM (inactive) | 20 µM (inactive) | 23.8 µM (inactive) | 42 µM (inactive) | 31.7 µM (inactive) | 19.7 µM (inactive) | 28.4 µM (inactive) | 34.1 µM (inactive) | 38 µM (inactive) | 35.4 µM (inactive) | 44 µM (inactive) | 40.3 µM (inactive) | 52.7 µM (inactive) | 19.9 µM (inactive) | 43.3 µM (inactive) | 83.8 µM (inactive)
8 | COc1cc2c(cc1OCCN1CCN(CCOc3cc4c(cc3OC)C(=O)N3CCC[C@H]3C=N4)CC1)N=C[C@@H]1CCCN1C2=O | 17.8 µM (inactive) | 21.5 µM (inactive) | 14 µM (inactive) | 24 µM (inactive) | 0.906 µM (active) | 15 µM (inactive) | 18.2 µM (inactive) | 20.8 µM (inactive) | 2.06 µM (inactive) | 9.14 µM (inactive) | 13.5 µM (inactive) | 25.9 µM (inactive) | 25.9 µM (inactive) | 13.1 µM (inactive) | 10.2 µM (inactive) | > 100 µM (inactive) | 25.4 µM (inactive) | 25.1 µM (inactive) | 35.5 µM (inactive)
9 | COc1ccc(S(=O)(=O)NC(CCC(=O)NN)C(=O)NN)cc1 (centres undefined) | > 100 µM (inactive) | > 100 µM (inactive) | > 100 µM (inactive) | > 100 µM (inactive) | > 100 µM (inactive) | > 100 µM (inactive) | > 100 µM (inactive) | > 100 µM (inactive) | > 100 µM (inactive) | > 100 µM (inactive) | > 100 µM (inactive) | > 100 µM (inactive) | > 100 µM (inactive) | – | > 100 µM (inactive) | > 100 µM (inactive) | > 100 µM (inactive) | > 100 µM (inactive) | > 100 µM (inactive)
10 | O=C(C(=O)n1ccc2ccccc21)n1ccc2ccccc21 | 91.6 µM (inactive) | > 100 µM (inactive) | > 100 µM (inactive) | > 100 µM (inactive) | 34 µM (inactive) | 71.4 µM (inactive) | > 100 µM (inactive) | > 100 µM (inactive) | > 100 µM (inactive) | > 100 µM (inactive) | 36.6 µM (inactive) | > 100 µM (inactive) | > 100 µM (inactive) | 84.7 µM (inactive) | 37 µM (inactive) | 48.3 µM (inactive) | > 100 µM (inactive) | – | 54.6 µM (inactive)
11 | O=C1CC(=O)NC(NN2C(=O)/C(=C/c3ccccc3)N=C2c2ccccc2)=N1 | > 100 µM (inactive) | 26.6 µM (inactive) | > 100 µM (inactive) | > 100 µM (inactive) | > 100 µM (inactive) | > 100 µM (inactive) | > 100 µM (inactive) | > 100 µM (inactive) | > 100 µM (inactive) | > 100 µM (inactive) | > 100 µM (inactive) | > 100 µM (inactive) | > 100 µM (inactive) | > 100 µM (inactive) | > 100 µM (inactive) | > 100 µM (inactive) | > 100 µM (inactive) | > 100 µM (inactive) | –
12 | COC(=O)C1=C(C(=O)OC)C2OC1c1cc3ccccc3cc12 | 1.76 µM (inactive) | 5.47 µM (inactive) | 2.05 µM (inactive) | 1.82 µM (inactive) | 1.69 µM (inactive) | – | 8.89 µM (inactive) | 7.38 µM (inactive) | 1.54 µM (inactive) | 2.5 µM (inactive) | 22.2 µM (inactive) | 2.88 µM (inactive) | 15.2 µM (inactive) | 18.3 µM (inactive) | 6.27 µM (inactive) | 18.8 µM (inactive) | 2.61 µM (inactive) | 2.1 µM (inactive) | 18.7 µM (inactive)
13 | CCOC(=O)C(NC(=O)c1ccccc1)(Nc1cc(C)on1)C(F)(F)F (centres undefined) | > 100 µM (inactive) | > 100 µM (inactive) | > 100 µM (inactive) | > 100 µM (inactive) | > 100 µM (inactive) | > 100 µM (inactive) | > 100 µM (inactive) | > 100 µM (inactive) | > 100 µM (inactive) | > 100 µM (inactive) | – | > 100 µM (inactive) | > 100 µM (inactive) | > 100 µM (inactive) | > 100 µM (inactive) | > 100 µM (inactive) | > 100 µM (inactive) | > 100 µM (inactive) | > 100 µM (inactive)
14 | O=C(CN1CCOCC1)Nc1ccc2c(c1)C1Oc3ccccc3CC1CO2 (centres undefined) | > 100 µM (inactive) | 38.1 µM (inactive) | > 100 µM (inactive) | > 100 µM (inactive) | > 100 µM (inactive) | > 100 µM (inactive) | > 100 µM (inactive) | > 100 µM (inactive) | 88.1 µM (inactive) | > 100 µM (inactive) | – | > 100 µM (inactive) | > 100 µM (inactive) | > 100 µM (inactive) | > 100 µM (inactive) | > 100 µM (inactive) | > 100 µM (inactive) | > 100 µM (inactive) | > 100 µM (inactive)
15 | COc1ccc(Cc2c(N)[nH]c(=O)n(C)c2=O)cc1 | > 100 µM (inactive) | > 100 µM (inactive) | 96.6 µM (inactive) | > 100 µM (inactive) | 3.9 µM (inactive) | > 100 µM (inactive) | 5.75 µM (inactive) | > 100 µM (inactive) | – | > 100 µM (inactive) | 72.1 µM (inactive) | > 100 µM (inactive) | 97.3 µM (inactive) | 34.6 µM (inactive) | > 100 µM (inactive) | > 100 µM (inactive) | > 100 µM (inactive) | > 100 µM (inactive) | > 100 µM (inactive)
